{
  "source": "paper PMC8667045",
  "about": "“Into Deep Water: Optimizing BCL6 Inhibitors by Growing into a Solvated Pocket” (Journal of Medicinal Chemistry, 2021)",
  "key": {"[1]": {"target": "T1, BCL6 BTB domain (Homo sapiens, UniProt P41182)", "test": "SPR assay, immobilised BCL6 BTB protein (Biacore T200)", "format": "binding", "parameters": "made in house; host or cells: E. coli BL21-AI"}, "[2]": {"system": "OCI-Ly3", "test": "14 day cell viability assay (CellTiter Glo)", "format": "cell-based", "conditions": "Homo sapiens, BCL6-low, 14 days of treatment"}, "[3]": {"system": "OCI-Ly1", "test": "14 day cell viability assay (CellTiter Glo)", "format": "cell-based", "conditions": "Homo sapiens, BCL6-high, 14 days of treatment"}, "[4]": {"test": "Measured logD7.4", "format": "physicochemical", "conditions": "pH 7.4"}, "[5]": {"system": "SU-DHL-4", "test": "14 day cell viability assay (CellTiter Glo)", "format": "cell-based", "conditions": "Homo sapiens, BCL6-high, 14 days of treatment"}, "[6]": {"test": "PAMPA passive permeability pH 7.4", "conditions": "pH 7.4, passive permeability Pe"}, "[7]": {"test": "In vivo pharmacokinetic study in female Balb/c mice", "conditions": "mouse; for Cmax: blood", "procedure": "5. Supplementary experimental: in vivo PK and PD experiments\nAll procedures were in accordance with UK Home Office regulations under the Animals (Scientific […]\naccordance with published guidelines17. Mice were allowed access to food and water ad libitum.\n5.1In vivo pharmacokinetic studies\nAll experiments were conducted in accordance with the UKCC guidelines for animal experimentations17. Animals were adapted to laboratory conditions for at least 1 week prior to dosing and were allowed food and water ad libitum. CCT369347 (25) was administered iv or po (mouse, 0.1 mL/10 g in 10% DMSO, 5% tween 20 in saline); Blood samples were collected in […]\ncollection together with a standard curve and quality controls spiked in control blood. Samples were reconstituted in a Water:MeOH mixture containing internal standard as previously described […]\nFollowing centrifugation, extracts were analyzed by multiple reaction monitoring of precursor and product ions by ESI-LCMS/MS on either a Waters (Milford, MA, USA) Xevo TQ-S or Sciex (Framingham, MA, USA) QTrap6500 following gradient separation with 0.1% […]\nQuantitation was carried out with an external calibration. Quality controls were […]\nPharmacokinetic parameters were derived from noncompartmental analysis using Phoenix Pharsight. Non compartmental analysis (model 200"}, "[8]": {"system": "MM.1S", "test": "14 day cell viability assay (CellTiter Glo)", "format": "cell-based", "conditions": "Homo sapiens, MM1.S; BCL6-low, 14 days of treatment"}, "[9]": {"target": "T1, BCL6 BTB domain", "test": "biochemical", "procedure": "Supplementary experimental: protein production, purification and crystallography\n3C protease cleavage site.\nused without cleaving the tag, as a 6His was needed to bind to the anti-6His-Terbium antibody. For\nFor both plasmid constructs described above, transformed BL21-AI E. coli cells were grown in LB\ncarried out at 18 °C for 18 hours. Cells were harvested by centrifugation (5500 g for 30 minutes at 4\noC) and stored at -80 °C.\nCells were re-suspended in a buffer composed of 20 mM Tris pH 8, 250 mM NaCl, 1 mM MgCl2, 0.5\nCells were lysed by sonication followed by centrifugation at 21,000 g for 45 minutes at 4 °C. […]\nThe final protein was assessed for purity\nand molar mass by SDS-PAGE and high-resolution mass spectrometry, respectively.\ndirectly eluted from the HisTrap FF column without HRV-3C treatment, and submitted to Superdex75\ngel filtration as described above. […]\n2. Supplementary experimental: biological assay conditions\nIC50 values were determined using\na sigmoidal four-parameter logistic fit equation."}, "[10]": {"test": "Protein binding by equilibrium dialysis", "format": "in vitro ADME, mouse"}, "[11]": {"system": "SU-DHL-6", "test": "14 day cell viability assay (CellTiter Glo)", "format": "cell-based", "conditions": "Homo sapiens, BCL6-high, 14 days of treatment"}, "[12]": {"test": "NMR solubility assay", "format": "physicochemical", "conditions": "HEPES buffer, 5% DMSO, room temperature", "procedure": "3. Supplementary experimental: physicochemical assays\nThe plate was then sealed and incubated at room temperature for 20 hours, without shaking. The plate was centrifuged again for 1 minute at […]\nspectrometer equipped with a 5 mm TCI-CryoProbe. […]\ndeuterated solvent. […] All NMR data were acquired at the […]\ncontained 16k time-domain data points. Relaxation delay was set to 20 sec. […]"}, "[13]": {"conditions": "female, Balb/c, whole blood, iv, 1 mg/kg, IV 1 mg/kg, individual animals"}, "[14]": {"conditions": "female, Balb/c, whole blood, po, 5 mg/kg, PO 5 mg/kg, individual animals"}, "[15]": {"conditions": "IV 1 mg/kg, individual animals, 1 mg/kg"}, "[16]": {"conditions": "PO 5 mg/kg, individual animals, 5 mg/kg"}},
  "note": "Several values for one entry are separate records, joined by “and”; a condition that tells them apart may be missing. Identical values can stand only once. Like-named read-outs stand apart in the source and are kept apart here.",
  "data": [
    {"smiles": "Cn1c(=O)cc(NC(C)(C)c2ncc(C3CC3)cn2)c2cc(Nc3ccnc(Cl)c3C#N)ccc21", "note": "[Compound 25, 2-Chloro-4-((4-((2-(5-cyclopropylpyrimidin-2-yl)propan-2-yl)amino)-1-methyl-2-oxo-1,2-dihydroquinolin-6-yl)amino)nicotinonitrile]", "values": [
      {"measurement": "Kd", "setting": "[1]; individual runs, Langmuir plot, 1:1 binding model, read-out: SPR KD", "value": "0.277 µM and 0.282 µM and 0.198 µM and 0.201 µM"},
      {"measurement": "Kd", "setting": "[1]; mean of four runs, read-out: SPR KD mean value", "value": 0.236, "unit": "µM"},
      {"measurement": "SPR pKd", "setting": "[1]; mean, +/- SEM where printed", "value": 6.63},
      {"measurement": "GI50", "setting": "[2]", "value": "> 10", "unit": "µM"},
      {"measurement": "GI50", "setting": "[3]", "value": 1.68, "unit": "µM"},
      {"measurement": "logD", "setting": "[4]", "value": 2.7},
      {"measurement": "GI50", "setting": "[5]", "value": 3.45, "unit": "µM"},
      {"measurement": "PAMPA7.4", "setting": "[6]", "value": "35 x10^-6 cms^-1"},
      {"measurement": "clearance", "setting": "[7]; female, Balb/c, whole blood, iv, 1 mg/kg, 1 mg kg^–1 i.v., mean, read-out: clearance (CL)", "value": 1.44, "unit": "L/h/kg"},
      {"measurement": "Cmax", "setting": "[7]; [13]", "value": 0.443, "unit": "µM"},
      {"measurement": "AUC(0-inf)", "setting": "[7]; [13]", "value": 1380, "unit": "nM·h"},
      {"measurement": "AUC(0-t)", "setting": "[7]; [13]", "value": 1280, "unit": "nM·h"},
      {"measurement": "clearance", "setting": "[7]; female, Balb/c, whole blood, iv, 1 mg/kg, IV 1 mg/kg, individual animals, read-out: CL", "value": 1.49, "unit": "L/h/kg"},
      {"measurement": "Tmax", "setting": "[7]; female, Balb/c, whole blood, iv, 1 mg/kg, IV 1 mg/kg, individual animals, read-out: Tmax", "value": 0.08, "unit": "h"},
      {"measurement": "Vd", "setting": "[7]; female, Balb/c, whole blood, iv, 1 mg/kg, IV 1 mg/kg, individual animals, read-out: Vss", "value": 9.43, "unit": "L/kg"},
      {"measurement": "Cmax", "setting": "[7]; [14]", "value": 0.347, "unit": "µM"},
      {"measurement": "AUC(0-inf)", "setting": "[7]; [14]", "value": 1440, "unit": "nM·h"},
      {"measurement": "AUC(0-t)", "setting": "[7]; [14]", "value": 1350, "unit": "nM·h"},
      {"measurement": "Tmax", "setting": "[7]; female, Balb/c, whole blood, po, 5 mg/kg, PO 5 mg/kg, individual animals, read-out: Tmax", "value": 2, "unit": "h"},
      {"measurement": "bioavailability", "setting": "[7]; female, Balb/c, whole blood, po, 5 mg kg^–1 p.o. vs 1 mg kg^–1 i.v.", "value": 29, "unit": "%"},
      {"measurement": "toxicity in PK study", "setting": "[7]; 1 mg kg^–1 i.v. and 5 mg kg^–1 p.o.", "value": "no toxicity was observed"},
      {"measurement": "Cmax", "setting": "[7]; [15]", "value": "0.521 µM and 0.471 µM"},
      {"measurement": "AUCINF", "setting": "[7]; [15]", "value": "1450 nM·h and 1416 nM·h"},
      {"measurement": "AUClast", "setting": "[7]; [15]", "value": "1395 nM·h and 1344 nM·h"},
      {"measurement": "CL", "setting": "[7]; [15]", "value": "1.42 L/h/kg and 1.45 L/h/kg"},
      {"measurement": "HL_Lambda_z", "setting": "[7]; [15]", "value": "7.99 h and 5.93 h and 6.83 h"},
      {"measurement": "Vss", "setting": "[7]; [15]", "value": "6.96 L/kg and 7.81 L/kg"},
      {"measurement": "Cmax", "setting": "[7]; [16]", "value": "0.382 µM and 0.427 µM"},
      {"measurement": "AUCINF", "setting": "[7]; [16]", "value": "1848 nM·h and 1279 nM·h"},
      {"measurement": "AUClast", "setting": "[7]; [16]", "value": "1534 nM·h and 1233 nM·h"},
      {"measurement": "HL_Lambda_z", "setting": "[7]; [16]", "value": "1.33 h and 2.12 h and 1.14 h"},
      {"measurement": "Tmax", "setting": "[7]; [16]", "value": 1, "unit": "h"},
      {"measurement": "GI50", "setting": "[8]", "value": "> 10", "unit": "µM"},
      {"measurement": "IC50", "setting": "[9]; BCL6 TR-FRET Geo Mean IC50, geometric mean of n replicates, supplement", "value": 0.03, "unit": "µM"},
      {"measurement": "IC50", "setting": "[9]; TR-FRET IC50 individual replicates, single replicates, italic values used 10nM BCL6, otherwise 1nM BCL6", "value": "40 nM and 20 nM (2×) and 30 nM (2×)"},
      {"measurement": "BCL6 TR-FRET pIC50 mean", "setting": "[9]; mean of n replicates", "value": "7.58 and 7.583"},
      {"measurement": "IC50", "setting": "[9]; read-out: BCL6 TR-FRET Geo Mean IC50, geometric mean of n replicates, supplement", "value": 0.0261, "unit": "µM"},
      {"measurement": "free in mouse plasma", "setting": "[10]", "value": 1.3, "unit": "%"},
      {"measurement": "GI50", "setting": "[11]", "value": 2.55, "unit": "µM"},
      {"measurement": "solubility at 20 h", "setting": "[12]", "value": "30 µM and 29 µM"}
    ]}
  ]
}
